The compounds below were run against PARP-1 (poly[ADP-ribose] polymerase 1) enzyme (Homo sapiens (Human), UniProt P09874) (assay: PARP-1 (poly[ADP-ribose] polymerase 1) enzyme inhibitory ability, Trevigen assay kit). Details: 1 nM compound; read-out: PAR P-1 Inhibitory ability at 1 nM.
PARP-1 (poly[ADP-ribose] polymerase 1) enzyme, sequence (P09874 whole entry): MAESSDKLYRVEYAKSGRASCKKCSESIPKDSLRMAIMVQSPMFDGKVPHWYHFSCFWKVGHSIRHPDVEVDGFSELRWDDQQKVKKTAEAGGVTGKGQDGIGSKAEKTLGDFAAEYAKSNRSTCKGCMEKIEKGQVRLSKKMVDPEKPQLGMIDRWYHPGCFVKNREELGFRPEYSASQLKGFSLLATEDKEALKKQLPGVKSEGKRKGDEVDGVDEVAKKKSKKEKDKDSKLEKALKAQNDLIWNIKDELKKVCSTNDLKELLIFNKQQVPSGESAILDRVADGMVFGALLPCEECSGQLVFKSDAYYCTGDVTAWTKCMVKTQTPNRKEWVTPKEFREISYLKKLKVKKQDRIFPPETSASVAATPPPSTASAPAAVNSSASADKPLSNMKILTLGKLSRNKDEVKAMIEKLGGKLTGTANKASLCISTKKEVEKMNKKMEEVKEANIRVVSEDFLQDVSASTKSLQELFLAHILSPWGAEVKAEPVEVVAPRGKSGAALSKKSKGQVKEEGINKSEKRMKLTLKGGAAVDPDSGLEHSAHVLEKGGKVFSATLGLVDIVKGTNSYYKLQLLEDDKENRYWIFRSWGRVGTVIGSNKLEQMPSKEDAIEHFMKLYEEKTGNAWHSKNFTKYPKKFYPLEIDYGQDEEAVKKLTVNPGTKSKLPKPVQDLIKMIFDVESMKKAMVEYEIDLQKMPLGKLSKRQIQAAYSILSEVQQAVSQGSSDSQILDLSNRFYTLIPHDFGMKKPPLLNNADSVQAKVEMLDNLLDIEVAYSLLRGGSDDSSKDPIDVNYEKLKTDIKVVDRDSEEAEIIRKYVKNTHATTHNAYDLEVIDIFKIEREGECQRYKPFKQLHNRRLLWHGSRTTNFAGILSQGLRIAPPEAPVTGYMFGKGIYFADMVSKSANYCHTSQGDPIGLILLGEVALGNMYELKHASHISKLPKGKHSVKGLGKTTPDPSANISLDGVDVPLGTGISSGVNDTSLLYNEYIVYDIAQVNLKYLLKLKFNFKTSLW
Assay type: biochemical
In short: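 After the 1 hour PARP reaction, wells were washed with PBS containing 0.1% triton X-100 and then PBS. Strep-HRP (50 μL) was bound for 1 hour, wells washed again, and 50 μL of TACS-sapphire substrate developed 15 minutes in the dark. Reactions were stopped with 50 μL of 5% phosphoric acid and absorbance read at 450 nm on a Victor3 reader.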
For Cc1cc(F)cc2c(=O)[nH]c(CCCN3C4CCC3CN(c3ccc(C#N)cn3)C4)cc12 [Example 205, 6-(8-(3-(7-fluoro-5-methyl-1-oxo-1,2-dihydroisoquinolin-3-yl)propyl)-3,8-diazabicyclo[3.2.1]octan-3-yl)nicotinonitrile], the inhibition at 0.001 µM was 50 to 80%. Cc1cc(F)cc2c(=O)[nH]c(CCC(=O)N3C4CCC3CN(c3ccc(F)cn3)C4)cc12 [Example 219, 7-fluoro-3-(3-(3-(5-fluoropyridin-2-yl)-3,8-diazabicyclo[3.2.1]octan-8-yl)-3-oxopropyl)-5-methylisoquinolin-1(2H)-one] was tested, and the inhibition at 0.001 µM was < 50%. For O=C(O)c1cccc(N2CCN(CCCc3cc4ccc(F)cc4c(=O)[nH]3)CC2)c1 [Example 19, 3-(4-(3-(7-fluoro-1-oxo-1,2-dihydroisoquinolin-3-yl)propyl)piperazin-1-yl)benzoic acid], the inhibition at 0.001 µM was < 50%. In the case of Cc1ccc(F)c2c(=O)[nH]c(CCCN3C4CCC3CN(c3ccc(Cl)cc3)C4)cc12 [Example 201, 3-(3-(3-(4-chlorophenyl)-3,8-diazabicyclo[3.2.1]octan-8-yl)propyl)-8-fluoro-5-methylisoquinolin-1(2H)-one], the inhibition at 0.001 µM is reported as < 50%. N#Cc1cc(F)ccc1N1CCN(C(=O)CCc2cc3ccc(F)cc3c(=O)[nH]2)CC1 [Example 110, 5-fluoro-2-(4-(3-(7-fluoro-1-oxo-1,2-dihydroisoquinolin-3-yl)propanoyl)piperazin-1-yl)benzonitrile] was tested, and the inhibition at 0.001 µM was < 50%. In the case of N#Cc1cccc(N2CCN(C(=O)CCc3cc4cccc(F)c4c(=O)[nH]3)CC2)c1 [Example 77, 3-(4-(3-(8-fluoro-1-oxo-1,2-dihydroisoquinolin-3-yl)propanoyl)piperazin-1-yl)benzonitrile], the inhibition at 0.001 µM is reported as < 50%. For O=C(CCc1cc2ccc(F)cc2c(=O)[nH]1)N1CC[C@@H](c2ccc(F)cc2)C1 [Example 117, (S)-7-fluoro-3-(3-(3-(4-fluorophenyl)pyrrolidin-1-yl)-3-oxopropyl)isoquinolin-1(2H)-one], the inhibition at 0.001 µM was < 50%. In the case of N#Cc1ccc(C2=CCN(CCCc3cc4ccc(F)cc4c(=O)[nH]3)CC2)cc1F [Example 52, 2-fluoro-4-(1-(3-(7-fluoro-1-oxo-1,2-dihydroisoquinolin-3-yl)propyl)-1,2,3,6-tetrahydropyridin-4-yl)benzonitrile], the inhibition at 0.001 µM is reported as < 50%. For N#Cc1ccc(N2CCN(C(=O)CCc3cc4cccc(F)c4c(=O)[nH]3)CC2)cc1 [Example 68, 4-(4-(3-(8-fluoro-1-oxo-1,2-dihydroisoquinolin-3-yl)propanoyl)piperazin-1-yl)benzonitrile], the inhibition at 0.001 µM was < 50%. For N#Cc1ccc(F)c(N2CCN(C(=O)CCc3cc4ccc(F)cc4c(=O)[nH]3)CC2)c1 [Example 107, 4-fluoro-3-(4-(3-(7-fluoro-1-oxo-1,2-dihydroisoquinolin-3-yl)propanoyl)piperazin-1-yl)benzonitrile], the inhibition at 0.001 µM was < 50%. O=c1[nH]c(CCCN2CCN(c3ncccn3)CC2)cc2ccc(F)cc12 [Example 13, 7-fluoro-3-(3-(4-(pyrimidin-2-yl)piperazin-1-yl)propyl)isoquinolin-1(2H)-one] was tested, and the inhibition at 0.001 µM was < 50%. In the case of O=c1[nH]c(CCCN2C3CCC2CN(c2ccc(F)cn2)C3)cc2ncccc12 [Example 231, 7-(3-(3-(5-fluoropyridin-2-yl)-3,8-diazabicyclo[3.2.1]octan-8-yl)propyl)-1,6-naphthyridin-5(6H)-one], the inhibition at 0.001 µM is reported as < 50%. Cc1ccc(F)c2c(=O)[nH]c(CCC(=O)N3CCC(NC(=O)C4CC4)CC3)cc12 [Example 276, N-(1-(3-(8-fluoro-5-methyl-1-oxo-1,2-dihydroisoquinolin-3-yl)propanoyl)piperidin-4-yl)cyclopropanecarboxamide] was tested, and the inhibition at 0.001 µM was < 50%. In the case of O=C(CCc1cc2ccc(F)cc2c(=O)[nH]1)N1CCN(c2ccc(Cl)cc2)CC1 [Example 105, 3-(3-(4-(4-chlorophenyl)piperazin-1-yl)-3-oxopropyl)-7-fluoroisoquinolin-1(2H)-one], the inhibition at 0.001 µM is reported as < 50%. Cc1ccc(F)c2c(=O)[nH]c(CCCN3CCN(c4ccc(C(F)(F)F)cc4)CC3)cc12 [Example 27, 8-fluoro-5-methyl-3-(3-(4-(4-(trifluoromethyl)phenyl)piperazin-1-yl)propyl)isoquinolin-1(2H)-one] was tested, and the inhibition at 0.001 µM was < 50%. With N#Cc1ccc(N2CCN(CCCc3cc4cccc(F)c4c(=O)[nH]3)CC2)cc1F [Example 5, 2-fluoro-4-(4-(3-(8-fluoro-1-oxo-1,2-dihydroisoquinolin-3-yl)propyl)piperazin-1-yl)benzonitrile] the inhibition at 0.001 µM was < 50%. For Cc1ccc(F)c2c(=O)[nH]c(CCCN3CCN(c4ccc(C#N)cc4F)CC3)cc12 [Example 26, 3-fluoro-4-(4-(3-(8-fluoro-5-methyl-1-oxo-1,2-dihydroisoquinolin-3-yl)propyl)piperazin-1-yl)benzonitrile], the inhibition at 0.001 µM was 50 to 80%. Work on N#Cc1ccc(N2CC3CCC(C2)N3CCCc2cc3ccc(F)cc3c(=O)[nH]2)nc1 [Example 204, 6-(8-(3-(7-fluoro-1-oxo-1,2-dihydroisoquinolin-3-yl)propyl)-3,8-diazabicyclo[3.2.1]octan-3-yl)nicotinonitrile] yielded an inhibition at 0.001 µM of 50 to 80%. Cc1cc(F)cc2c(=O)[nH]c(CCC(=O)N3C4CCC3CN(c3ccc(Cl)cc3)C4)cc12 [Example 216, 3-(3-(3-(4-chlorophenyl)-3,8-diazabicyclo[3.2.1]octan-8-yl)-3-oxopropyl)-7-fluoro-5-methylisoquinolin-1(2H)-one] was tested, and the inhibition at 0.001 µM was < 50%. With N#Cc1ccc(C2=CCN(C(=O)CCc3cc4cccc(F)c4c(=O)[nH]3)CC2)cc1 [Example 69, 4-(1-(3-(8-fluoro-1-oxo-1,2-dihydroisoquinolin-3-yl)propanoyl)-1,2,3,6-tetrahydropyridin-4-yl)benzonitrile] the inhibition at 0.001 µM was < 50%. With O=c1[nH]c(CCCN2CC=C(c3ccc(F)nc3)CC2)cc2cccc(F)c12 [Example 43] the inhibition at 0.001 µM was < 50%. O=c1[nH]c(CCCN2CCC(Nc3ccc(C(F)(F)F)cc3)CC2)cc2ncccc12 [Example 253, 7-(3-(4-((4-(trifluoromethyl)phenyl)amino)piperidin-1-yl)propyl)-1,6-naphthyridin-5(6H)-one] was tested, and the inhibition at 0.001 µM was < 50%. With COC(=O)c1ccc(NC2CCN(CCCc3cc4ncccc4c(=O)[nH]3)CC2)cc1 [Example 252, methyl 4-((1-(3-(5-oxo-5,6-dihydro-1,6-naphthyridin-7-yl)propyl)piperidin-4-yl)amino)benzoate] the inhibition at 0.001 µM was < 50%. For Cc1cc(F)cc2c(=O)[nH]c(CCC(=O)N3CC=C(c4cc(C#N)ccc4F)CC3)cc12 [Example 160, 4-fluoro-3-(1-(3-(7-fluoro-5-methyl-1-oxo-1,2-dihydroisoquinolin-3-yl)propanoyl)-1,2,3,6-tetrahydropyridin-4-yl)benzonitrile], the inhibition at 0.001 µM was < 50%. O=c1[nH]c(CCCN2CC=C(c3cccc(F)c3)CC2)cc2ncccc12 [Example 238, 7-(3-(4-(3-fluorophenyl)-3,6-dihydropyridin-1(2H)-yl)propyl)-1,6-naphthyridin-5(6H)-one] was tested, and the inhibition at 0.001 µM was < 50%. With Cc1ccc(F)c2c(=O)[nH]c(CCC(=O)N3CCN(c4ccc(C#N)cc4F)CC3)cc12 [Example 128, 3-fluoro-4-(4-(3-(8-fluoro-5-methyl-1-oxo-1,2-dihydroisoquinolin-3-yl)propanoyl)piperazin-1-yl)benzonitrile] the inhibition at 0.001 µM was < 50%. In the case of Cc1cc(F)cc2c(=O)[nH]c(CCC(=O)N3CCN(C(=O)C4CCCC4)CC3)cc12 [Example 177, 3-(3-(4-(cyclopentanecarbonyl)piperazin-1-yl)-3-oxopropyl)-7-fluoro-5-methylisoquinolin-1(2H)-one], the inhibition at 0.001 µM is reported as < 50%. CC(C)C(=O)N1CCN(C(=O)CCc2cc3cccc(F)c3c(=O)[nH]2)CC1 [Example 186, 8-fluoro-3-(3-(4-isobutyrylpiperazin-1-yl)-3-oxopropyl)isoquinolin-1(2H)-one] was tested, and the inhibition at 0.001 µM was < 50%. With Cc1cc(F)cc2c(=O)[nH]c(CCCN3CCN(c4ccc(C#N)cc4)CC3)cc12 [Example 34, 4-(4-(3-(7-fluoro-5-methyl-1-oxo-1,2-dihydroisoquinolin-3-yl)propyl)piperazin-1-yl)benzonitrile] the inhibition at 0.001 µM was < 50%. For N#Cc1ccc(NC2CCN(CCCc3cc4ncccc4c(=O)[nH]3)CC2)cc1 [Example 250, 4-((1-(3-(5-oxo-5,6-dihydro-1,6-naphthyridin-7-yl)propyl)piperidin-4-yl)amino)benzonitrile], the inhibition at 0.001 µM was < 50%. With Cc1ccc(F)c2c(=O)[nH]c(CCCN3CC=C(c4ccc([N+](=O)[O-])cc4F)CC3)cc12 [Example 56, 8-fluoro-3-(3-(4-(2-fluoro-4-nitrophenyl)-3,6-dihydropyridin-1(2H)-yl)propyl)-5-methylisoquinolin-1(2H)-one] the inhibition at 0.001 µM was < 50%. With Cc1cc(F)cc2c(=O)[nH]c(CCC(=O)N3CCC(Nc4ccc(C#N)cc4)CC3)cc12 [Example 260, 4-((1-(3-(7-fluoro-5-methyl-1-oxo-1,2-dihydroisoquinolin-3-yl)propanoyl)piperidin-4-yl)amino)benzonitrile] the inhibition at 0.001 µM was < 50%. O=c1[nH]c(CCCN2C3CCC2CC(O)C3)cc2cccc(F)c12 (stereo not drawn) [Example 272, 8-fluoro-3-(3-(3-hydroxy-8-azabicyclo[3.2.1]octan-8-yl)propyl)isoquinolin-1(2H)-one] gave an inhibition at 0.001 µM of 50 to 80%. In the case of O=C(CCc1cc2ccc(F)cc2c(=O)[nH]1)N1CC=C(c2ccc(F)cn2)CC1 [Example 103, 7-fluoro-3-(3-(5-fluoro-3′,6′-dihydro-[2,4′-bipyridine]-1′(2′H)-yl)-3-oxopropyl)isoquinolin-1(2H)-one], the inhibition at 0.001 µM is reported as < 50%. With Cc1cc(F)cc2c(=O)[nH]c(CCC(=O)N3CC=C(c4ccc(F)cc4F)CC3)cc12 [Example 162, 3-(3-(4-(2,4-difluorophenyl)-3,6-dihydropyridin-1(2H)-yl)-3-oxopropyl)-7-fluoro-5-methylisoquinolin-1(2H)-one] the inhibition at 0.001 µM was < 50%.

Same assay, conditions: PARP-1 enzyme activity
N#Cc1ccc(N2CCN(C(=O)CCc3cc4cccc(F)c4c(=O)[nH]3)CC2)cc1 [Example 68, 4-(4-(3-(8-fluoro-1-oxo-1,2-dihydroisoquinolin-3-yl)propanoyl)piperazin-1-yl)benzonitrile] was tested, and the IC50 was 1.9 nM. With Cc1ccc(F)c2c(=O)[nH]c(CCC(=O)N3CCN(c4ccc(C#N)cc4F)CC3)cc12 [Example 128, 3-fluoro-4-(4-(3-(8-fluoro-5-methyl-1-oxo-1,2-dihydroisoquinolin-3-yl)propanoyl)piperazin-1-yl)benzonitrile] the IC50 was 1.38 nM. In the case of O=c1[nH]c(CCCN2C3CCC2CC(O)C3)cc2cccc(F)c12 (stereo not drawn) [Example 272, 8-fluoro-3-(3-(3-hydroxy-8-azabicyclo[3.2.1]octan-8-yl)propyl)isoquinolin-1(2H)-one], the IC50 is reported as 3.27 nM. O=C(CCc1cc2ccc(F)cc2c(=O)[nH]1)N1CC=C(c2ccc(F)cn2)CC1 [Example 103, 7-fluoro-3-(3-(5-fluoro-3′,6′-dihydro-[2,4′-bipyridine]-1′(2′H)-yl)-3-oxopropyl)isoquinolin-1(2H)-one] gave an IC50 of 0.91 nM.

From patent US12459899B2, “Isoquinolinone derivatives, method for preparing the same, and pharmaceutical composition for preventing or treating poly(ADP-ribose) polymerase-1-related diseases, comprising the same as active ingredient” (DIGMBIO. INC., priority 2019, dated 2025)
